Results reported in patent publication US11266650B2, “Pharmaceutical composition for preventing and treating nonalcoholic steatohepatitis, hepatic fibrosis, and liver cirrhosis, comprising adenosine derivatives” (FUTURE MEDICINE CO., LTD., priority 2016, dated 2022).

Columns and labels:
[1] = molecular target: T1, human A2A adenosine receptor (hA2A) (Homo sapiens, UniProt P29274); experiment: Binding affinity for A2A adenosine receptor expressed on HEK 293 cell ([3H]CGS-21680); settings: 10 μM (table footnote); read-out: percentage inhibition of specific binding, hA2A
T1 construct: expressed in transfected cells; host or cells: HEK 293 cells
T1 sequence (P29274 whole entry): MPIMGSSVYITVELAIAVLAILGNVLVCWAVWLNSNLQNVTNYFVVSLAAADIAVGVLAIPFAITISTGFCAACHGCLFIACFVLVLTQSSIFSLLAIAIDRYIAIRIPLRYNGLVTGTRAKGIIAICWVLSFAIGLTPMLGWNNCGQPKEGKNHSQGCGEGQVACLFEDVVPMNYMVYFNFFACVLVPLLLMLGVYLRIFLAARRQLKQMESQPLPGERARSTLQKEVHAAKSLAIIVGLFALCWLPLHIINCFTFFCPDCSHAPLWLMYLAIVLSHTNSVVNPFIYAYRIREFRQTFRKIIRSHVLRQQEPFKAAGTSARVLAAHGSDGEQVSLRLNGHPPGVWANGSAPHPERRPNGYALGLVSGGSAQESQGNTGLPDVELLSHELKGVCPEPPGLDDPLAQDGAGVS
Procedure: Each of the compounds synthesized in the examples was measured for IC50 at least 6 different concentrations, and the measurements were analyzed using SigmaPlot software to determine Ki values.

[2] = molecular target: T2, human A1 adenosine receptor (hA1) (Homo sapiens, UniProt P30542); experiment: Binding affinity for human A1 adenosine receptor expressed in CHO cells ([3H]CCPA); settings: 10 μM (table footnote); read-out: percentage inhibition of specific binding, hA1
T2 construct: expressed in transfected cells; host or cells: CHO cells (ATCC No. CCL-61)
T2 sequence (P30542 1-326): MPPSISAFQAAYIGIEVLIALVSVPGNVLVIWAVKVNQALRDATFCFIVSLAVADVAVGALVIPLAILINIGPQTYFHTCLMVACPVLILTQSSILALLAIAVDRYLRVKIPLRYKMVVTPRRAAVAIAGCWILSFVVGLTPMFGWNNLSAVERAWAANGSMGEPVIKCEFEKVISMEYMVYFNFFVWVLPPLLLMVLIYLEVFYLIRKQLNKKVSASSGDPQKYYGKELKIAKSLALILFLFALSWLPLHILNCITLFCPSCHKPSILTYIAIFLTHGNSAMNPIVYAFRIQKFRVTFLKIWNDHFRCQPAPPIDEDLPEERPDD
Procedure: (§1) CHO cells (ATCC No. CCL-61), in which A1 and A3 adenosine receptors were expressed, were cultured in F-12 media (Gibco, U.S.A.) supplemented with 10% fetal bovine serum (FBS) and penicillin/streptomycin (100 units/ml and 100 g/ml), at 37° C. in a 5% CO2 atmosphere. […] Incubation for 1 hr in a 37° C. incubator was followed by rapid filtration in a vacuum using a cell collector (TOMTEC, U.S.A.). Subsequently, the test tubes were washed three times with 3 ml of the buffer before radioactivity was measured using a γ-counter. […] Ki for binding affinity was determined by subtracting the non-specific binding value from the total binding value. On the basis of the specific binding values, the samples were analyzed for binding affinity to various adenosine receptors.

[3] = molecular target: T3, human A3 adenosine receptor (hA3 AR) (Homo sapiens, UniProt P0DMS8); experiment: Binding affinity for human A3 adenosine receptor expressed in CHO cells ([125I]AB-MECA); settings: ± SEM; [125I]AB-MECA, CHO cells
T3 construct: expressed in transfected cells; host or cells: CHO cells (ATCC No. CCL-61)
T3 sequence (P0DMS8 1-318): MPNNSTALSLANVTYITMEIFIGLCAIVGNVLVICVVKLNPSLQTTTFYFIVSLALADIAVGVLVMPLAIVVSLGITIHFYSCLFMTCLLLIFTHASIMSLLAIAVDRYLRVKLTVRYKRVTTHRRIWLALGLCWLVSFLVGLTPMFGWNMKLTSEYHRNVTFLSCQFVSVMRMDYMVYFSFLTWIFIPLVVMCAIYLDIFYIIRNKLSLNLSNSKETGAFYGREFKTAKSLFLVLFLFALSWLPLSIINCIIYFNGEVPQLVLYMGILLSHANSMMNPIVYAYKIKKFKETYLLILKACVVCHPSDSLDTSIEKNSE
Procedure: as §1

[4] = system: TPA-induced inflammation of the mouse ear; experiment: Anti-inflammatory activity, TPA-treated mouse ear; type: in vivo, ICR mice; settings: 0.5% in DMSO:acetone (1:9), topical, mouse ear
Procedure: The adenosine derivatives of the present invention were examined for anti-inflammatory activity in the following animal test. Seven-week-old male ICR mice were treated with TPA (12-O-tetradecanoylphorbol-13-acetate, 20 μl) in the right ear. […] Hydrocortisone was used at the same concentration as a control.
6 hrs after treatment with TPA, the mice were secondarily treated with the adenosine derivatives of the present invention. 24 hrs after TPA treatment, test animals were euthanized using a cervical dislocation method. Samples were obtained from the right ear using a 6 mm diameter punch. The activity was observed by measuring the ear sample using a microbalance. Percentages of inhibition were calculated using the following Equation 1. The compositions and amounts used in these experiments are summarized in Tables 2 to 5 and the anti-inflammatory activities thereof are shown in FIGS. 2 to 5.

[5] = system: NASH- or NAFLD-induced mice; experiment: Efficacy test on NASH or NAFLD and liver fibrosis in NASH- or NAFLD-induced mice; type: in vivo; settings: oral once a day, 6 to 10 weeks of age; vs negative control; HE staining
Procedure: As a comparison group, eight normal mice were given no treatment until 10 weeks of age. As a positive control group, eight NASH- or NAFLD-induced mice were orally administered with 10 mg/kg of telmisartan (i.e., a hypertension medication) once a day for six to 10 weeks of age. As a negative control group, eight NASH- or NAFLD-induced mice were orally administered with only 10 mL/kg of 0.5% methyl cellulose (i.e., a vehicle) once a day for 6 to 10 weeks of age.
Then, for the livers of the experimental animals at 10 weeks of age, the degree of steatosis, inflammation and ballooning were measured using HE staining, and the area of fibrosis was observed and measured using Sirius red staining.

In the case of `OC1CO[C@@H](n2cnc3c(NCc4cccc(I)c4)nc(Cl)nc32)C1O` (stereo partly drawn) [Example 16, (2R,3R,4R)-2-(6-(3-iodobenzylamino)-2-chloro-9H-purin-9-yl)tetrahydrofuro-3,4-diol], the melting point is reported as 195.5 to 195.8 °C, the inhibition [1] is reported as 28.6% and the inhibition at 10 µM [2] is reported as 37.7%. The Ki [3] was 42.9 ± 8.9 nM and the “percentage of inflammation inhibition” value [4] was 79%.

With `CCCc1nc2c(C)cc(-c3nc4ccccc4n3C)cc2n1Cc1ccc(-c2ccccc2C(=O)O)cc1` [telmisartan] the “steatosis score of the liver” value [5] was “no significant decrease in steatosis was observed”.
